Reference: publication PMC5238392, “Origin of anti-tumor activity of the cysteine-containing GO peptides and further optimization of their cytotoxic properties” (Scientific Reports, 2017)

Legend:
HT-1080 cells = test: Caspase 3/7 activation assay (CellEvent / SYTOX), HT-1080; type: cell-based, human; settings: 10 μM, 4 h, Fig. 4B
Excerpt: (§1) A complementary perspective on GO-203-induced apoptosis is provided by the caspase 3/7 activation assay, Fig. 4. In both HT-1080 and ZR-75-1, the data offer a clear view of the early and late apoptotic populations. The time dependence illustrated in Fig. 4E,F confirms that the onset of apoptosis occurs sufficiently rapidly in both cell lines – by the time of flow-cytometry observations the system has already approached the steady state. In the literature there is some evidence that activation of executioner caspases may precede the translocation of phosphatidylserine to the outer leaf of the membrane. While this could be in principle relevant for comparison between the Annexin V assay and caspase activation assay, one should bear in mind that in our case both assays offer a snapshot of a fairly advanced apoptotic process.
(§2) Figure 4 GO-203-induced apoptosis in HT-1080 and ZR-75-1 cells as assessed by the double staining with CellEvent caspase-3/7 green detection reagent and vital dye SYTOX. (A–D) Flow cytometry histograms for the cells incubated for 4 h with 10 μM of GO-203 and the untreated (control) cells. (E–G) Apoptotic fractions in the GO-203-treated and untreated (control) cells as a function of incubation time and GO-203 concentration. TEXT PRINTED IN THE PICTURE: (B) GO-203: HT-1080: IV.(0.11 %); HT-1080: III.(64.49 %); HT-1080: I.(12.21 %); HT-1080: II.(23.20 %) | (D) GO-203: ZR-75-1: IV.(0.40 %); ZR-75-1: III.(35.18 %); ZR-75-1: I.(28.95 %); ZR-75-1: II.(35.47 %)
(§3) The adherent cells were rinsed with PBS, harvested using trypsin-EDTA solution and suspended in the growth medium. To analyze cell cycle phase distribution, 200 μg/ml of saponin (Fluka, USA), 250 μg/ml RNase A, and 50 μg/ml of propidium iodide (both Sigma-Aldrich, USA) were added to each sample tube, thus obtaining DNA stain buffer. After 1 h incubation at room temperature, the samples were analyzed by flow cytometry. To detect apoptosis by flow cytometry, CellEvent Caspase-3/7 Green Flow Cytometry Assay Kit (Thermo Fisher Scientific, USA) and Annexin-V FITC conjugate (BD Biosciences, USA) in combination with propidium iodide have been employed following the manufacturer’s protocols.
(§4) Cell fluorescence was measured using CytoFLEX (Beckman Coulter, USA) flow cytometer equipped with 3 lasers (405, 488 and 633 nm). Cells were gated on FSC/SSC to remove debris. Mean fluorescence intensity from 10,000 cells was acquired.

ZR-75-1 cells = test: Caspase 3/7 activation assay (CellEvent / SYTOX), ZR-75-1; type: cell-based, human; settings: 10 μM, 4 h, Fig. 4D
Excerpt: as §1, §2, §3, §4

[R]9CQCRRKN [GO-203, in clinical trials]
quadrant I fraction (caspase-3/7 / SYTOX) (HT-1080 cells): 12.21%
quadrant II fraction (caspase-3/7 / SYTOX) (HT-1080 cells): 23.20%
quadrant III fraction (caspase-3/7 / SYTOX) (HT-1080 cells): 64.49%
quadrant IV fraction (caspase-3/7 / SYTOX) (HT-1080 cells): 0.11%
quadrant I fraction (caspase-3/7 / SYTOX) (ZR-75-1 cells): 28.95%
quadrant II fraction (caspase-3/7 / SYTOX) (ZR-75-1 cells): 35.47%
quadrant III fraction (caspase-3/7 / SYTOX) (ZR-75-1 cells): 35.18%
quadrant IV fraction (caspase-3/7 / SYTOX) (ZR-75-1 cells): 0.40%
